Experimental data from US20190343908A1, “Therapeutic Combination for the Treatment of Cancer” (Nerium Biotechnology Inc., priority 2011, published 2019).

Test system: HT55 (colorectal cancer)
Assay: Crystal Violet viability assay, HT55
Type: cell-based, human
Parameters: key: absorbance at 570 nm (crystal violet), background wavelength subtracted
Excerpt: Three different viability assays were chosen to complement each other and yielded results dependent on concentration and cell line: the Methyl Tetrazolium dye assay, the Sulforhodamine B fluorescent dye assay, and the Crystal Violet dye assay.
The Sulforhodamine B and Crystal Violet assays provide information about protein and were used to complement the Methyl-Tetrazolium dye assay. […] It is used for the quantification of cellular proteins of cultured cells. The assay using Crystal Violet, a dye that binds electrostatically to proteins and stains DNA, provides a reliable, simple assay for measuring viability of cells.
The Methyl Tetrazolium, Sulforhodamine B, and Crystal Violet assays were used to assess cell viabilities. The incubation times were 24 hours, 48 hours, and 72 hours. The Nerium oleander extract Anvirzel™ (a hot water extract of oleander obtained from Salud Integral, Honduras) was tested in concentrations ranging from 0.01 ng/mL to 10 ng/mL.
Cells were detached by trypsinization (Trypsin-0.25% EDTA, Invitrogen, 25200-072) during the logarithmic phase of culture growth and plated in 96-well plates (18.000 cells/well) (Corning, Costar 359) in a final volume of 200 μl of medium per well. […] The absorbance was measured after 24 hours, 48 hours, and 72 hours of incubation.
For the Crystal Violet assay, the medium was removed from the 96-well plates, the plates rinsed with PBS (Sigma, P3813) and then the cells were […] by the addition of 10% formalin (MERCK, 1.04003.2500) for 20 minutes at RT. Formalin was removed and 0.25% aqueous crystal violet (Sigma, HT901), dissolved in water, was added for 10 minutes at RT. Unbound Crystal Violet was rinsed by washing with water and finally 33% acetic acid was added to dissolve the dye.
The optical density of each plate was measured on a μQuant spectrophotometer and the data were analyzed with Gen5 software (μQuant Biomolecular Spectrophotometer MQX200 and Gen5™ Microplate Data Collection & Analysis software, BioTek® Instruments. Inc, April 2008). Absorbance was measured at 570 nm for all assays and a second wavelength was measured in order to subtract noise. For the Methyl-Tetrazolium assay this second wavelength was 630 nm and for the Sulforhodamine B and Crystal Violet assays it was 690 nm.

With `N.N.[Cl][Pt][Cl]` [cisplatin] the “CVE Average” value (HT55, Run 1, 24 h, 0.1 μg/ml CDDP) was 0.838, the “CVE Average” value (HT55, Run 1, 24 h, 1 μg/ml CDDP) was 0.557 and the “CVE Average” value (HT55, Run 1, 24 h, 10 μg/ml CDDP) was 0.728. For the same compound, the “CVE Average” value (HT55, Run 1, 24 h, 100 μg/ml CDDP) was 0.383, the “CVE Average” value (HT55, Run 1, 48 h, 0.1 μg/ml CDDP) was 0.588 and the “CVE Average” value (HT55, Run 1, 48 h, 1 μg/ml CDDP) was 0.314. The “CVE Average” value (HT55, Run 1, 48 h, 10 μg/ml CDDP) was 0.405, the “CVE Average” value (HT55, Run 1, 48 h, 100 μg/ml CDDP) was 0.269 and the “CVE Average” value (HT55, Run 1, 72 h, 0.1 μg/ml CDDP) was 0.901. For the same compound, the “CVE Average” value (HT55, Run 1, 72 h, 1 μg/ml CDDP) was 0.437, the “CVE Average” value (HT55, Run 1, 72 h, 10 μg/ml CDDP) was 0.436 and the “CVE Average” value (HT55, Run 1, 72 h, 100 μg/ml CDDP) was 0.243. For the same compound, the “CVE Average” value (HT55 Run 2, 24 h, 0.1 μg/ml CDDP) was 1.745, the “CVE Average” value (HT55 Run 2, 24 h, 1 μg/ml CDDP) was 0.942 and the “CVE Average” value (HT55 Run 2, 24 h, 10 μg/ml CDDP) was 1.075. The “CVE Average” value (HT55 Run 2, 24 h, 100 μg/ml CDDP) was 0.758, the “CVE Average” value (HT55 Run 2, 48 h, 0.1 μg/ml CDDP) was 0.793 and the “CVE Average” value (HT55 Run 2, 48 h, 1 μg/ml CDDP) was 0.23. For the same compound, the “CVE Average” value (HT55 Run 2, 48 h, 10 μg/ml CDDP) was 0.281, the “CVE Average” value (HT55 Run 2, 48 h, 100 μg/ml CDDP) was 0.286 and the “CVE Average” value (HT55 Run 2, 72 h, 0.1 μg/ml CDDP) was 0.937. The “CVE Average” value (HT55 Run 2, 72 h, 1 μg/ml CDDP) was 0.395, the “CVE Average” value (HT55 Run 2, 72 h, 10 μg/ml CDDP) was 0.326 and the “CVE Average” value (HT55 Run 2, 72 h, 100 μg/ml CDDP) was 0.244. For the same compound, the “CVE Average” value (HT55 Run 3, 24 h, 0.1 μg/ml CDDP) was 0.591, the “CVE Average” value (HT55 Run 3, 24 h, 1 μg/ml CDDP) was 0.201 and the “CVE Average” value (HT55 Run 3, 24 h, 10 μg/ml CDDP) was 0.812. For the same compound, the “CVE Average” value (HT55 Run 3, 24 h, 100 μg/ml CDDP) was 0.15, the “CVE Average” value (HT55 Run 3, 48 h, 0.1 μg/ml CDDP) was 1.099 and the “CVE Average” value (HT55 Run 3, 48 h, 1 μg/ml CDDP) was 0.561. For the same compound, the “CVE Average” value (HT55 Run 3, 48 h, 10 μg/ml CDDP) was 1.712, the “CVE Average” value (HT55 Run 3, 48 h, 100 μg/ml CDDP) was 0.285 and the “CVE Average” value (HT55 Run 3, 72 h, 0.1 μg/ml CDDP) was 1.228. For the same compound, the “CVE Average” value (HT55 Run 3, 72 h, 1 μg/ml CDDP) was 0.577, the “CVE Average” value (HT55 Run 3, 72 h, 10 μg/ml CDDP) was 2.329 and the “CVE Average” value (HT55 Run 3, 72 h, 100 μg/ml CDDP) was 0.431.
